Results: article PMC5684318, “Heterogeneity in the Drosophila gustatory receptor complexes that detect aversive compounds” (Nature Communications, 2017)

Target: T1, GR22e/GR32a/GR66a (Drosophila melanogaster, UniProt P58953+Q9VKJ7+Q9VSH2)
T1 construct: full-length receptors co-expressed in Drosophila S2 cells (with EGFP) and in sweet GRNs via UAS/Gr64f-GAL4
T1 sequence (P58953 1-389): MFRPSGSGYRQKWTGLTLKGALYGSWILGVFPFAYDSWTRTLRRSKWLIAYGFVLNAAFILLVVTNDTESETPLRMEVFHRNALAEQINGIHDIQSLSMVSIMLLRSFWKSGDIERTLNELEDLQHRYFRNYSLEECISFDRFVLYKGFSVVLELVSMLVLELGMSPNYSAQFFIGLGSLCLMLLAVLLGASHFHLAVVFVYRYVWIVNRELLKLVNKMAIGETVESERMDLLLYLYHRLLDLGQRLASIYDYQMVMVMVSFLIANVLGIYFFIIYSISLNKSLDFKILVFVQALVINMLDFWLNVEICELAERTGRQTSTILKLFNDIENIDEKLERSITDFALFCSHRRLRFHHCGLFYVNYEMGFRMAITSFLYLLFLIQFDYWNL
T1 sequence (Q9VKJ7 1-461): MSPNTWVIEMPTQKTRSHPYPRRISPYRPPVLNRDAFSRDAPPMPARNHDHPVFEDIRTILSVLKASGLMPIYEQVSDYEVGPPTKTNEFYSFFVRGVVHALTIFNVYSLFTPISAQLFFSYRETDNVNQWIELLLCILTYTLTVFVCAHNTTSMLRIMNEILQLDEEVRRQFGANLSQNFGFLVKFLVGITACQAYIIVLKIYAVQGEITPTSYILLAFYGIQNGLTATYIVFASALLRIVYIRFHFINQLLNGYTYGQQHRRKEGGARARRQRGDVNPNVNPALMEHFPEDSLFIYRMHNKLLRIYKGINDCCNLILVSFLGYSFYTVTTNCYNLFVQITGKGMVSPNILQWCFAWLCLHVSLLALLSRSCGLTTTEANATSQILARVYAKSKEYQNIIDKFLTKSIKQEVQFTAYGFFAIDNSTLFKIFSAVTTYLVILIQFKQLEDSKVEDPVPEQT
T1 sequence (Q9VSH2 1-527): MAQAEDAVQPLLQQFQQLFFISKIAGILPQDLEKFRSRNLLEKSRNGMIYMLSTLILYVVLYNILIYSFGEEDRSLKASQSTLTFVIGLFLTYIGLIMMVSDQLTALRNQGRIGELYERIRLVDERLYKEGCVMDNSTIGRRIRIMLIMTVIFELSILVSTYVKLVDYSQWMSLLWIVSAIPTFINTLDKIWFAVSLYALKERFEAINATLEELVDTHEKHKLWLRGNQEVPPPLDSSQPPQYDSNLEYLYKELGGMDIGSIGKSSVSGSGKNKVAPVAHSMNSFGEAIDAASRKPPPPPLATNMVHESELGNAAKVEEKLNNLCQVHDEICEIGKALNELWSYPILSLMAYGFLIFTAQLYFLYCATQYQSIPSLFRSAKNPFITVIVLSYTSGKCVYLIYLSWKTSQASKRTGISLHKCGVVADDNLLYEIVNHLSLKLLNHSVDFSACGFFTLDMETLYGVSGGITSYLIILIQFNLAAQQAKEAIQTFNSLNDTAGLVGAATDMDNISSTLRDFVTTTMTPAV
Assay: whole-cell patch clamp of S2 cells; tip recording of L-type sensilla misexpressing the receptors
Assay type: cell-based
Settings: agonist; S2 cells pH 7.4, room temperature, voltage ramp -80 to +80 mV; sensilla 1 mM

| Compound | whole-cell patch clamp of S2 cells; tip recording of L-type sensilla misexpressi |
| --- | --- |
| O=C1C[C@@H]2OCC=C3CN4CC[C@]56c7ccccc7N1[C@H]5[C@H]2[C@H]3C[C@H]46 [STR, strychnine] | GR22e/GR32a/GR66a-expressing S2 cells also respond to STR |
| CC[N+](CC)(CC(=O)Nc1c(C)cccc1C)Cc1ccccc1 [DEN, denatonium] | both Gr combinations confer sensitivity to LOB, BER, and DEN on S2 cells |
| CN1[C@@H](CC(=O)c2ccccc2)CCC[C@H]1C[C@H](O)c1ccccc1 [LOB, lobeline] | both Gr combinations confer sensitivity to LOB, BER, and DEN on S2 cells |
| COc1ccc2cc3[n+](cc2c1OC)CCc1cc2c(cc1-3)OCO2 [BER, berberine] | both Gr combinations confer sensitivity to LOB, BER, and DEN on S2 cells |
